Source: ChEMBL document CHEMBL4354805, “Discovery of MK-8719, a Potent O-GlcNAcase Inhibitor as a Potential Treatment for Tauopathies” (J Med Chem, 2019)

Legend:
[1] = Ratio of drug uptake in rat brain to plasma at 3 mg/kg, po measured after 8 hrs; assay type: ADME, organism-based; conditions: read-out: BPR
[2] = Protein binding in monkey plasma; assay type: ADME, cell-free, Macaca mulatta; conditions: rhesus monkey, read-out: PPB
[3] = Ratio of drug level in rat blood to plasma; assay type: ADME, cell-free; conditions: whole blood
[4] = Fraction unbound in Beagle dog plasma at 1 uM by equilibrium dialysis; assay type: ADME, cell-free, Canis lupus familiaris
[5] = Ratio of drug level in dog blood to plasma; assay type: ADME, cell-free, Canis lupus familiaris; conditions: whole blood
[6] = Oral bioavailability in Wistar Han rat at 10 mg/kg; assay type: ADME, organism-based; conditions: in vivo
[7] = Stability in monkey hepatocytes assessed as parent compound remaining at 10 uM incubated for 120 mins; assay type: ADME, cell-based, Macaca mulatta, Hepatocyte; conditions: rhesus monkey, read-out: Stability
[8] = Tmax in rat brain at 10 mg/kg, po measured upto 24 hrs; assay type: ADME, organism-based
[9] = Protein binding in dog plasma; assay type: ADME, cell-free, Canis lupus familiaris; conditions: read-out: PPB
[10] = AUC (0 to 24 hrs) in rat assessed as change in histomorphology at 1000 mg/kg, po administered for 7 days and measured on day 8; assay type: ADME, organism-based; design: time < 24 hr, dose 1000 mg/kg, route oral; conditions: in vivo
IKs (KCNQ1) = biological target: T1, IKs (KCNQ1) (Homo sapiens, UniProt P51787); test: Inhibition of IKs (unknown origin) at 30 uM
T1 sequence (P51787 whole entry): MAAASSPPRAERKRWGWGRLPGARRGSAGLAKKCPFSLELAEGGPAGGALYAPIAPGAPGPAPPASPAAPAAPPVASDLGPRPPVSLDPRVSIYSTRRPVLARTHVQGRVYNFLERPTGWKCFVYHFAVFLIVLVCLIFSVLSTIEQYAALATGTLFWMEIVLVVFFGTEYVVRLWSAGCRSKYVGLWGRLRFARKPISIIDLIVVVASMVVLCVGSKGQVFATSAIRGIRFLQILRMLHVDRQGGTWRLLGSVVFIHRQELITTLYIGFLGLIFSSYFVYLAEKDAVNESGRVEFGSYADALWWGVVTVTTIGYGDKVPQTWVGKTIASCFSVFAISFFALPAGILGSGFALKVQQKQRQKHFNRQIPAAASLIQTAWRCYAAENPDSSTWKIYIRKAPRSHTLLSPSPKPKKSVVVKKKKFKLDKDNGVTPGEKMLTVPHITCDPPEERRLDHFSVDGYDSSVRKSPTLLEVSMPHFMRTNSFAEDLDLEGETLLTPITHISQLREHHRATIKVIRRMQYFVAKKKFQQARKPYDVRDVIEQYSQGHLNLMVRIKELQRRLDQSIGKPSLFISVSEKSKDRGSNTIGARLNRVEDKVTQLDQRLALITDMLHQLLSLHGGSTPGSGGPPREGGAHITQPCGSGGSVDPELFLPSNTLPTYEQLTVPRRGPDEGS

Cytochrome P450 1A2 = biological target: T2, Cytochrome P450 1A2 (Homo sapiens, UniProt P05177); test: Induction of CYP1A2 in human hepatocytes upto 20 uM; assay type: ADME, cell-based
T2 sequence (P05177 whole entry): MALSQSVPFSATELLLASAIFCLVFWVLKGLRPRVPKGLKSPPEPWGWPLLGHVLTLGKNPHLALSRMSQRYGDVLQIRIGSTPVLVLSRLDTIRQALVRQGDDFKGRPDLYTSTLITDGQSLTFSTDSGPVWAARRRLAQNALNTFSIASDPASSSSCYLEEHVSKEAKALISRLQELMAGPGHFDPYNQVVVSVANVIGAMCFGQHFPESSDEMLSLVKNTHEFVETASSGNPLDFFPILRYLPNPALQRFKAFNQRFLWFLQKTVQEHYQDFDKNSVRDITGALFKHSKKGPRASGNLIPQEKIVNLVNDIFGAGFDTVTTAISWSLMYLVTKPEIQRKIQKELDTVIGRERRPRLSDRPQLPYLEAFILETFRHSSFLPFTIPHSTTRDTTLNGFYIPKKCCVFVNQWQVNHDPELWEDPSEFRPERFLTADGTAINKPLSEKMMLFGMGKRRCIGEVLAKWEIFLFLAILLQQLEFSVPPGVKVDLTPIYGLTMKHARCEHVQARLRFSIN

[11] = Protein binding in rat plasma; assay type: ADME, cell-free; conditions: read-out: PPB
[12] = Fraction unbound in Wistar Han rat plasma at 2.5 uM by equilibrium dialysis; assay type: ADME, cell-free
Rattus norvegicus [13] = test: Increase in O-protein AUC in rat brain at 10 mg/kg, po measured upto 24 hrs; assay type: ADME, organism-based; conditions: in vivo
Cav1.2 = Cav1.2 (Homo sapiens, UniProt Q13936); test: Inhibition of Cav1.2 (unknown origin) at 30 uM
Sequence of Cav1.2 (Q13936 whole entry): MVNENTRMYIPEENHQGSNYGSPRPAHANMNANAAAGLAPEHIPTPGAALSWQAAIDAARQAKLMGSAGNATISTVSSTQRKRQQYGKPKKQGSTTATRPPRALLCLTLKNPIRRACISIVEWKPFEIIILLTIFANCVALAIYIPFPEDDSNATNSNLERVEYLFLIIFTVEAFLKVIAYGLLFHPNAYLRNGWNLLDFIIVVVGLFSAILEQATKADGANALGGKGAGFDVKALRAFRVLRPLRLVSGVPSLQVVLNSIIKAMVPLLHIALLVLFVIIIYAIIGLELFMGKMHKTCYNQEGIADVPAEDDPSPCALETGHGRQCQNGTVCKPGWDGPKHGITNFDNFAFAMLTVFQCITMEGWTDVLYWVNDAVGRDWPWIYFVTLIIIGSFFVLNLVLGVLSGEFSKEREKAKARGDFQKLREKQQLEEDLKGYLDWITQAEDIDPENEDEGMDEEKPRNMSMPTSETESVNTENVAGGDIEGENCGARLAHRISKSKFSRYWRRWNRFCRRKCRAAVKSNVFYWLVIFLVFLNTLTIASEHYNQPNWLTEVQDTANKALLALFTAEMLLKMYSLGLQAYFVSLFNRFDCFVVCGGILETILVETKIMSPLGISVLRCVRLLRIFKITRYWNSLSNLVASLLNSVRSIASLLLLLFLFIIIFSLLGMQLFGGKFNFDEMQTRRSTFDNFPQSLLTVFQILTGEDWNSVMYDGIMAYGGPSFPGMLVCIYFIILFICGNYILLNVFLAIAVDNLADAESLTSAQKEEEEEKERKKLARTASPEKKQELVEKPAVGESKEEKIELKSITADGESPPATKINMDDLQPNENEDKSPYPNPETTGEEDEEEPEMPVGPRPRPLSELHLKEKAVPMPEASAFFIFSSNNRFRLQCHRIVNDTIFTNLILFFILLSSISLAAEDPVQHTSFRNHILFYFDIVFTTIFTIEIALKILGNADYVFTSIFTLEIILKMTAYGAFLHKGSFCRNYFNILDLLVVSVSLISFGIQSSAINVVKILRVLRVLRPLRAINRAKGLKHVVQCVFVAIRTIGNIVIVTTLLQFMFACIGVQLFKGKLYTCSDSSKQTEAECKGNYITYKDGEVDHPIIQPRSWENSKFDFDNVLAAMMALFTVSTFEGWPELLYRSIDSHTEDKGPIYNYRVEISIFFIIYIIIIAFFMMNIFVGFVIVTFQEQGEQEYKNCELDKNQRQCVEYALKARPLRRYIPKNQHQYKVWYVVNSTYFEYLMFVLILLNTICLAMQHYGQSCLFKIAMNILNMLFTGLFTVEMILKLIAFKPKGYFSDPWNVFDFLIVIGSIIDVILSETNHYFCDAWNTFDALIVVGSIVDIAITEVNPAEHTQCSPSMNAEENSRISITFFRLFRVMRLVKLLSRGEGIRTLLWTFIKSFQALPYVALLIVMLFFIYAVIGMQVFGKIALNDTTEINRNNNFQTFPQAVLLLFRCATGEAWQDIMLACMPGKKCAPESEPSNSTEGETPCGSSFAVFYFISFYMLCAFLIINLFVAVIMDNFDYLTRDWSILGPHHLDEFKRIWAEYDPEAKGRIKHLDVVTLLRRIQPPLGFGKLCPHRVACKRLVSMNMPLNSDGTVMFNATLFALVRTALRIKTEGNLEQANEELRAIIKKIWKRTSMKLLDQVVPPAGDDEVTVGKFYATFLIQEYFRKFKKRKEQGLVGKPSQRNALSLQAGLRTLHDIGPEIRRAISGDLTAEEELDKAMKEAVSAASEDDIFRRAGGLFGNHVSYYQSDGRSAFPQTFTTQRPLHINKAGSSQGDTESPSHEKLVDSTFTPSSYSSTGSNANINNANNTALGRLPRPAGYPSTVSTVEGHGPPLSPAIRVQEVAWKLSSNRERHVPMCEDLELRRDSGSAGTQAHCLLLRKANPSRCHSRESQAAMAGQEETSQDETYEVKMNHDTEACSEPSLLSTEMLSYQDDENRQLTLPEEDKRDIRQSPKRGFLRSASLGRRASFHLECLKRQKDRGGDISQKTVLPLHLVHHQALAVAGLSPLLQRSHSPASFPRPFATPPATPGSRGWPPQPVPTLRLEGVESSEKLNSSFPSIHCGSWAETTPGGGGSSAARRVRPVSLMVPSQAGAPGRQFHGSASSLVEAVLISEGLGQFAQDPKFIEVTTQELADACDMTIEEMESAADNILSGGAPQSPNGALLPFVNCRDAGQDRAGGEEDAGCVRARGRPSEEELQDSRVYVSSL

[14] = Drug uptake in rat brain at 3 mg/kg, po measured after 24 hrs; assay type: ADME, organism-based; conditions: in vivo
[15] = Clearance in rhesus monkey at 1 mg/kg, iv; assay type: ADME, organism-based, Macaca mulatta; conditions: in vivo
[16] = Ratio of drug uptake in rat brain to plasma at 3 mg/kg, po measured after 24 hrs; assay type: ADME, organism-based; conditions: read-out: BPR
[17] = Oral bioavailability in rhesus monkey at 3 mg/kg; assay type: ADME, organism-based, Macaca mulatta; conditions: in vivo
Rattus norvegicus [18] = test: Elevation of O-protein in rat brain at 10 mg/kg, po measured after 24 hrs; assay type: functional
[19] = AUCN in Beagle dog at 3 mg/kg, po; assay type: ADME, organism-based, Canis lupus familiaris; conditions: in vivo
[20] = Cmax in telemetered dog at 380 mg/kg, po; assay type: ADME, organism-based, Canis lupus familiaris; design: dose 380 mg/kg, route oral; conditions: in vivo
Cytochrome P450 3A4 = Cytochrome P450 3A4 (Homo sapiens, UniProt P08684); test: Induction of CYP3A4 in human hepatocytes upto 20 uM; assay type: ADME, cell-based
Sequence of Cytochrome P450 3A4 (P08684 whole entry): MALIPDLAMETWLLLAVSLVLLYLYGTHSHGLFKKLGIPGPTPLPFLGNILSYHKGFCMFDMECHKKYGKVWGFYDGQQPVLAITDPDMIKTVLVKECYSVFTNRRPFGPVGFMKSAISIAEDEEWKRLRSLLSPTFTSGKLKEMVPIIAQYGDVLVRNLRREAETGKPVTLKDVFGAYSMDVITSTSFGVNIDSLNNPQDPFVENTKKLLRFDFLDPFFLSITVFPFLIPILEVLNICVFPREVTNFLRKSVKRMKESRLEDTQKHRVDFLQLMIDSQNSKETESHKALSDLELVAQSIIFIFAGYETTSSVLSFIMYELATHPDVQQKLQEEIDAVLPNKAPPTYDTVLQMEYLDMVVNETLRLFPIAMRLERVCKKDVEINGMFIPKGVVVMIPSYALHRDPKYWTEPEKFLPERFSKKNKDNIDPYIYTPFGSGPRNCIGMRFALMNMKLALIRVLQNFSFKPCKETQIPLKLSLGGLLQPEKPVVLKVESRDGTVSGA

[21] = Oral bioavailability in Beagle dog at 3 mg/kg; assay type: ADME, organism-based, Canis lupus familiaris; conditions: in vivo
[22] = Toxicity in rat assessed as change in histomorphology at 1000 mg/kg, po administered for 7 days and measured on day 8; assay type: organism-based; conditions: in vivo, 168 h
[23] = AUC (0 to 24 hrs) in rat brain at 10 mg/kg, po measured upto 24 hrs; assay type: ADME, organism-based; design: dose 10 mg/kg, time < 24 hr, route oral; conditions: in vivo
MDR1 = test: Apparent permeability in pig LLC-PK1 cells transfected with MDR1; assay type: ADME, cell-based, Sus scrofa
[24] = Volume of distribution at steady state in Beagle dog at 1 mg/kg, iv or 3 mg/kg, po; assay type: ADME, organism-based, Canis lupus familiaris; conditions: in vivo, read-out: Vdss
[25] = Cmax in telemetered rat at 380 mg/kg, po; assay type: ADME, organism-based; design: dose 380 mg/kg, route oral; conditions: in vivo
IKr (KCNH2) = IKr (KCNH2) (Homo sapiens, UniProt Q12809); test: Inhibition of IKr (unknown origin) at 30 uM
Sequence of IKr (KCNH2) (Q12809 whole entry): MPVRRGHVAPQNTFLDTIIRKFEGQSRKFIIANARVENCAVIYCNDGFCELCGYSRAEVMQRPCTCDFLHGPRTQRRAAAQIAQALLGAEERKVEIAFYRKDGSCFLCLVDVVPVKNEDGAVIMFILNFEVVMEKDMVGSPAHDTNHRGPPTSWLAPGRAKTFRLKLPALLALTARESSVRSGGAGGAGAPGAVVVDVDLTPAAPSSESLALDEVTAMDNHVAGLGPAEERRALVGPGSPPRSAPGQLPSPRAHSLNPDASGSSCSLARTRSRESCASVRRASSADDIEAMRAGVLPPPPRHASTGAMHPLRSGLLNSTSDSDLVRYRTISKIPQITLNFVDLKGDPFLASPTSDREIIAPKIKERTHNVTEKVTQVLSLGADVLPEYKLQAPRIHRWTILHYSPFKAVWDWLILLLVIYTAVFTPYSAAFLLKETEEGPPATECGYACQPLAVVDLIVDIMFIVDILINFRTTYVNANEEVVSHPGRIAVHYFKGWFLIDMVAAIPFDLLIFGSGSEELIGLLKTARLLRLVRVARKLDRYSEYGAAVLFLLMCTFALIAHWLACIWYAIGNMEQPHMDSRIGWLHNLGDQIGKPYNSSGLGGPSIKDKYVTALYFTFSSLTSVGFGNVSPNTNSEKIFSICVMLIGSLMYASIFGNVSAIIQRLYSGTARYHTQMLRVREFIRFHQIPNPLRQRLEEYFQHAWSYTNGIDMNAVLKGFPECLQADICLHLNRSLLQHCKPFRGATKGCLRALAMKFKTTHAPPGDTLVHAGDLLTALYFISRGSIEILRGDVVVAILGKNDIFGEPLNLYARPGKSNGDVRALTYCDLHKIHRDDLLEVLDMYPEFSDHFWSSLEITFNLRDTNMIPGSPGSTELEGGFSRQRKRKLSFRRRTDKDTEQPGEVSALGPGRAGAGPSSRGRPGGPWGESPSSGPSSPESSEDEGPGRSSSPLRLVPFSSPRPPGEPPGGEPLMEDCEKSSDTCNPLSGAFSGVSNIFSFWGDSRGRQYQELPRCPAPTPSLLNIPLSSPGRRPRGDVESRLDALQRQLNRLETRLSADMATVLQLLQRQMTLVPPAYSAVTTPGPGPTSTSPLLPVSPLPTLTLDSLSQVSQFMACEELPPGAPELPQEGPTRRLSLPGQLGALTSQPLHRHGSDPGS

Rattus norvegicus [26] = test: Elevation of O-protein in rat brain at 3 mg/kg, po measured after 8 hrs relative to control; assay type: functional
Nav1.5 = Nav1.5 (Homo sapiens, UniProt Q14524); test: Inhibition of Nav1.5 (unknown origin) at 30 uM
Canis familiaris = test: Hemodynamic activity in telemetered dog assessed as change in EKG parameter at 300 mg/kg, po; assay type: ADME, organism-based, Canis lupus familiaris; conditions: in vivo
[27] = Fraction unbound in rhesus monkey plasma at 1 uM by equilibrium dialysis; assay type: ADME, cell-free, Macaca mulatta

## CCNC1=N[C@@H]2[C@@H](O)[C@H](O)[C@@H](C(F)F)O[C@@H]2S1
[1]
  Kp at 8 h: 1.84
[2]
  fraction unbound: > 0.95
[3]
  blood plasma ratio: 0.9 to 1.1
[4]
  fraction unbound at 1 µM: > 0.99
[5]
  blood plasma ratio: 0.9 to 1.1
[6]
  bioavailability: 80%
[7]
  remaining at 2 h, 10 µM: 58%
[8]
  Tmax: 8 h
[9]
  fraction unbound: > 0.95
[10]
  AUC at 24 h: 1340 µM·h
IKs (KCNQ1)
  inhibition at 30 µM: < 50%
Cytochrome P450 1A2
  Activity: Not Active
[11]
  fraction unbound: > 0.95
[12]
  fraction unbound at 2.5 µM: 0.97
Rattus norvegicus [13]
  fold change (FC): 31.42
Cav1.2
  inhibition at 30 µM: < 50%
[14]
  Drug uptake: 0.088 nmol/g
[15]
  clearance: 26.7 mL/min/kg
[16]
  Kp at 24 h: ≥ 20.5
[17]
  bioavailability: 9%
Rattus norvegicus [18]
  fold change (FC): 2.57
[19]
  AUC/dose: 14.2 µM·kg·h/mg
[20]
  Cmax: 660 µM
Cytochrome P450 3A4
  Activity: Not Active
[21]
  bioavailability: 90%
[22]
  Activity: Non-Toxic
[23]
  AUC: 9.64 nM·h/g
MDR1
  Papp: 6.4 ×10⁻⁶ cm/s
[24]
  Vd: 2.4 L/kg
[25]
  Cmax: 110 µM
IKr (KCNH2)
  inhibition at 30 µM: < 50%
Rattus norvegicus [26]
  fold change (FC): 2.06
Nav1.5
  inhibition at 30 µM: < 50%
Canis familiaris
  Activity: Non-Toxic
[27]
  fraction unbound at 1 µM: > 0.99
